Broadly, the GI50 is the concentration at which growth is held to half of that of the control.

“Also recorded” adds a separate entry of the source.

In one assay the test system is PI3 kinase. Description: Comparison of covalent and non-covalent inhibitors (Tables 18 and 19): prolonged PD, mechanism. The following applies: Table 19. How it is done: “A” designates ≦10 nM; “B” designates 10-100 nM; and “C” designates 100-1000 nM
The next assay relates to SKOV3 cells. Description: GI50 determinations in SKOV3 cells. It is filed as cell-based. The note with it: Homo sapiens, SK-OV-3.
The target of a further assay is PI3Kα (Homo sapiens, UniProt P42336). Description: Trypsin digest and MS-MS analysis of compound-treated PI3Kα. It is filed as binding. Set-up: purchased Millipore 14-602. The following applies: in-gel trypsin digest. The procedure: (§1) The PI3Kα protein band was then excised and subjected to an in-gel trypsin digest by reducing the protein with DTT, alkylating the thiols with iodoacetamide, and then incubating the protein gel band with trypsin overnight in a 37° C. water bath. The digest was then stopped by addition of trifluoroacetic acid, and peptides were removed from gel band by sonicating with increasing amounts of acetonitrile (0%, 30%, & 60%). Peptides were then purified using C18 ziptips, spotted on the MALDI target plate with α-cyano-4-hydroxycinnamic acid as the desorption matrix (10 mg/ml in 0.1% TFA:Acetonitrile 50:50), and analyzed in reflectron mode.
as §1, with “trifluoro acetic” for “trifluoroacetic”

The test system of a further assay is PI3K. Description: PI3K HCT116 cellular assay (Western blot). It is filed as cell-based. The following applies: Homo sapiens, HCT-116, HCT116 colon cancer cells, 1 hour incubation, read-out: PI3K Inhibition. How it is done:
PI3K HCT116 Cellular Assay
Selected compounds were assayed in HCT116 colon cancer cells. […] Cells were then washed with PBS, lysed and the protein lysates were then recovered and analyzed by Western blot.
(In general: In western blotting, separated proteins are transferred to a membrane and probed.)

A further assay has as its target T1, PI3Kγ (p120γ) (Homo sapiens, UniProt P48736).
T1 construct: purchased BPS Bioscience (San Diego, Calif.) or Millipore (Billerica, Mass.)
Description: HTRF assay, potency against active PI3Kγ. It is filed as biochemical. The following applies: [ATP]=50 μM, [di-C8-PIP2]=10 μM, 30 min pre-incubation, read-out: PI3Kγ Inhibition. The gist of the method:
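End-point competition HTRF: enzyme (p110β/p85α 0.75 nM; p120γ 2-2.5 nM) with 10 μM di-C8-PIP2 pre-incubated 30 min at 25° C with compound, then 50 μM ATP added for 30-60 min at 25° C. Stopped, detected after 1 and 18 h; IC50 from variable-slope fit.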
In general terms: Time-resolved FRET reads energy transfer from a long-lived donor to a nearby acceptor.

The next assay deals with HCT116 cells. Description: HCT-116 cell proliferation assay. Type of assay: cell-based. The note with it: Homo sapiens, 72 hours, Cell Titer Glo. How it is done:
HCT-116 Cell Proliferation Assay
For the HCT116 Proliferation Assay, 3000 cells per well were plated in Growth Media (DMEM, 10% FBS, 1% 1-glutamine, 1% penicillin/streptomycin) in 96 well plates. The following day, compounds were added to duplicate wells at concentrations of 10 uM and 3-fold dilutions down to 40 nM. The plates were returned to the incubator for 72 hours and then the assays were developed using Cell Titer Glo (Promega, Madison, Wis.) according to manufacturer's instructions.
For orientation: ATP-based viability assays read luminescence as a measure of living cells.

Sequence of PI3Kα (P42336 whole entry): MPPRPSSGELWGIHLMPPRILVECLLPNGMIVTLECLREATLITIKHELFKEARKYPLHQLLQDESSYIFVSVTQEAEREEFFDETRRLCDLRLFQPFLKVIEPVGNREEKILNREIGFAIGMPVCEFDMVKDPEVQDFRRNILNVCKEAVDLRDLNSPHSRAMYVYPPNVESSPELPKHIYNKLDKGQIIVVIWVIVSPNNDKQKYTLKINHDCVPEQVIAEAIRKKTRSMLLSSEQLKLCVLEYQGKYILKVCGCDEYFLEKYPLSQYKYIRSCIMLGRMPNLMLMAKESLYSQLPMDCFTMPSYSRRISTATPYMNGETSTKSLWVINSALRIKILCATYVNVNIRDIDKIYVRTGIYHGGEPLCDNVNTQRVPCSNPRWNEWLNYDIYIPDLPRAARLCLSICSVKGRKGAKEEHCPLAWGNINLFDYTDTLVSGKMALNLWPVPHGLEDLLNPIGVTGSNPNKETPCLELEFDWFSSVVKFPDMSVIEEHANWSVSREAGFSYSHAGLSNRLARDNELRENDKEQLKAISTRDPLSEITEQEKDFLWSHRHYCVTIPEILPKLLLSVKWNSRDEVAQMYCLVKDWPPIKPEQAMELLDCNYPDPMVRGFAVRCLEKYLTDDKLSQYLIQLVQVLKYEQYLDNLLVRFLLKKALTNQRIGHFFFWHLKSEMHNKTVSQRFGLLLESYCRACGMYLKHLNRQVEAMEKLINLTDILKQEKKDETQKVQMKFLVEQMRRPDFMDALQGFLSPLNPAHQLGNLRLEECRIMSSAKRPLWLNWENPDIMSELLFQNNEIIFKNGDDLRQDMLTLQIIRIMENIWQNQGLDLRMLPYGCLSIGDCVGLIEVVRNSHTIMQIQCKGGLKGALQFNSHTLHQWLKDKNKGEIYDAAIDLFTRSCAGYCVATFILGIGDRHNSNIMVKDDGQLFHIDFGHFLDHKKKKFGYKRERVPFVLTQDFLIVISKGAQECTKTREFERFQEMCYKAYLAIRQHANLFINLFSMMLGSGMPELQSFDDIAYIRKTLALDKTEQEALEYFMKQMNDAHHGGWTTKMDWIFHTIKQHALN
Sequence of PI3Kα (P27986 whole entry partner): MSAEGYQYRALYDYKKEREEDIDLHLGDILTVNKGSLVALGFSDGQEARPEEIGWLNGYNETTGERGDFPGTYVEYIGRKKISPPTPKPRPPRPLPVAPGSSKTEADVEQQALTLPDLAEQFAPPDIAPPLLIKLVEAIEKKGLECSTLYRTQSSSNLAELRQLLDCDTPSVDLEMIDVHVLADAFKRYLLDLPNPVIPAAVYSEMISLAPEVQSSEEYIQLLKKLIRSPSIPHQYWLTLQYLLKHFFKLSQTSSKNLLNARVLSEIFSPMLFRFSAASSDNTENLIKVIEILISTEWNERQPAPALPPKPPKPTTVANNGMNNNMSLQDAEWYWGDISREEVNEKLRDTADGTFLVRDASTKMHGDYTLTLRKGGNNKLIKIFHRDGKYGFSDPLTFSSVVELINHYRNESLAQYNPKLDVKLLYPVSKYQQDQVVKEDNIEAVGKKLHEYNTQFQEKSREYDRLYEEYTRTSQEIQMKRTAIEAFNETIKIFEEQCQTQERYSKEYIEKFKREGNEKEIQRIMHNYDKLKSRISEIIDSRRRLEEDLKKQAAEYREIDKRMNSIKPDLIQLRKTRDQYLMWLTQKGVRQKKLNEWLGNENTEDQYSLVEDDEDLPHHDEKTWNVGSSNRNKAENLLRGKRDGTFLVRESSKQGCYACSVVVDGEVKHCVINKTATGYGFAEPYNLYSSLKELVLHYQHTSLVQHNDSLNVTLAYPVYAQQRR
T1 sequence (P48736 whole entry): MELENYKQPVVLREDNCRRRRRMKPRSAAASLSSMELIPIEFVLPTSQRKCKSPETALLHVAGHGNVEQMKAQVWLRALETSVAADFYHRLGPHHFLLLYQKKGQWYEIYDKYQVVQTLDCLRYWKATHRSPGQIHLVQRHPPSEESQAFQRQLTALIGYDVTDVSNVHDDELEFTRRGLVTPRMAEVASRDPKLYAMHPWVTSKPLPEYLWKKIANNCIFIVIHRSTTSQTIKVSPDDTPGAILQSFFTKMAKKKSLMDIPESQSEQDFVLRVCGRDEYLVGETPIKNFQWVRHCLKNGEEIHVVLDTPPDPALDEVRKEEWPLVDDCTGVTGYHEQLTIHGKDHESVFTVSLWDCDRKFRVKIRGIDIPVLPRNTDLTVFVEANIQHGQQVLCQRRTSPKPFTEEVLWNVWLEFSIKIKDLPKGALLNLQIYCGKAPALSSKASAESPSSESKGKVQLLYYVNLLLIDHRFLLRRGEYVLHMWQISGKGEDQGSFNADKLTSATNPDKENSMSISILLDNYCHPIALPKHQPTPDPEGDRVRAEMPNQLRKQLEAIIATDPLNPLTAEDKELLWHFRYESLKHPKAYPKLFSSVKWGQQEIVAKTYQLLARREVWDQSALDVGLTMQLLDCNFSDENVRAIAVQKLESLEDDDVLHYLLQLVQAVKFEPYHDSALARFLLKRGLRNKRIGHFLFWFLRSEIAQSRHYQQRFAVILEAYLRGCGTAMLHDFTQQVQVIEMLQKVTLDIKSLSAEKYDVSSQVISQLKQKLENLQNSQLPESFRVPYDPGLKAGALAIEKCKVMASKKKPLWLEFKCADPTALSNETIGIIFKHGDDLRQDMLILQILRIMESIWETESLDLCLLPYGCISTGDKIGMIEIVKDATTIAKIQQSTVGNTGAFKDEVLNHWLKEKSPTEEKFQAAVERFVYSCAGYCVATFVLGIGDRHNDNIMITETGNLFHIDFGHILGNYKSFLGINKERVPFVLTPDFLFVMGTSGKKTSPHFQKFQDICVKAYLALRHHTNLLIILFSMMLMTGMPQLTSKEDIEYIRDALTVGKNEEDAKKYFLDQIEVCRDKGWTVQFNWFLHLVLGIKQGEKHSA

For `CC(C)=CC(=O)CCC(=O)N1CCN(Cc2cc3nc(-c4cccc5[nH]ncc45)nc(N4CCOCC4)c3s2)CC1` [II-a-3, 1-(4-((2-(1H-indazol-4-yl)-4-morpholinothieno[3,2-d]pyrimidin-6-yl)methyl)piperazin-1-yl)-6-methylhept-5-ene-1,4-dione], the “Prolonged PD” value with PI3 kinase is recorded as “Yes”. Moreover, the GI50 in the assay on SKOV3 cells (SKOV3 cells, 96 hours, Cell Titer Glo) lay in the range of 10 to 100 nM; in the assay with SKOV3 cells (Table 19, assay not given, classes agree with Table 26), 10 to 100 nM. Besides, the “site on PI3Kα that is covalently modified” value on PI3Kα is reported as “Cys-862; also recorded: peptide ^853NSHTIMQIQCK^863”.
For the compound `C/C=C/C(=O)CCC(=O)N1CCN(Cc2cc3nc(-c4cccc5[nH]ncc45)nc(N4CCOCC4)c3s2)CC1` [II-a-36, (E)-1-(4-((2-(1H-indazol-4-yl)-4-morpholinothieno[3,2-d]pyrimidin-6-yl)methyl)piperazin-1-yl)hept-5-ene-1,4-dione], the EC50 in the assay on PI3K is below 20 nM; with HCT116 cells, 1000 to 10000 nM. On PI3Kγ (p120γ), the IC50 was above 1000 nM.

The values are drawn from patent publication US20110230476A1, “PI3 KINASE INHIBITORS AND USES THEREOF” (AVILA THERAPEUTICS, INC., priority 2009, published 2011).
